System: immunoglobulin light chain protein WIL-FL T46L
Experiment: Differential scanning fluorimetry (thermal shift) assay
Type: binding
Details: Table A; temperature shift [Tm]compound-[Tm]vehicle; recombinant WIL-FL T46L

SMILES	DSF
COC(=O)C1CCN(C2CCC23CC(NC(=O)c2nc4c(C)cc(N5CC[C@](C)(c6ccccc6)C5)cn4n2)C3)CC1 (stereo partly shown) [Compound 373]	***** (>2.5° C.=*****)
COC(=O)c1cccc(-c2nnc3n2CCN(C(=O)c2nc4c(C)cc(N5CC[C@](C)(c6ccccc6)C5)cn4n2)C3)n1 [Compound 406]	***** (>2.5° C.=*****)
Cc1cc(N2CC[C@](C)(c3ccccc3)C2)cn2nc(C(=O)NC3CC4(CCC4N4CCC(C(=O)O)CC4)C3)nc12 (stereo partly shown) [Compound 374]	***** (>2.5° C.=*****)
Cc1cc(N2CC[C@](C)(c3ccccc3)C2)cn2nc(C(=O)N3CCC34CCCN(c3cccc(C(=O)O)n3)C4)nc12 (stereo partly shown) [Compound 195]	***** (>2.5° C.=*****)
Cc1nnc(C2C3COC2(c2nc4c(C)cc(N5CC[C@](C)(c6ccccc6)C5)cn4n2)C3)o1 (stereo partly shown) [Compound 75]	***** (>2.5° C.=*****)
Cc1cc(OC[C@H](C)c2ccccc2)cn2nc(C(=O)NC3CCN(c4cccc(C(=O)O)n4)C3)nc12 (stereo partly shown) [Compound 305]	***** (>2.5° C.=*****)
Cc1cc(N2CC[C@](C)(c3ccccc3)C2)cn2nc(C(=O)NC34CCC(C(C)(C)O)(C3)C4)nc12 [Compound 208]	***** (>2.5° C.=*****)
Cc1cc(N2CC[C@](C)(c3ccccc3)C2)cn2nc(C(=O)NC3CC(N4C[C@H](O)[C@@H](O)C4)C3)nc12 (stereo partly shown) [Compound 362]	***** (>2.5° C.=*****)
Cc1cc(OC[C@H](C)c2ccccc2)cn2nc(C(=O)NCC34COC(C3)C4)nc12 [Compound 306]	***** (>2.5° C.=*****)
Cc1cc(N2CC[C@](C)(c3ccccc3)C2)cn2nc(C(=O)N3CCOC4(CNC4)C3)nc12 [Compound 177]	***** (>2.5° C.=*****)
Cc1cc(N2CC[C@](C)(c3ccccc3)C2)cn2nc(C(=O)NC3CNCC3O)nc12 (stereo partly shown) [Compound 117]	***** (>2.5° C.=*****)
Cc1cc(N2CC[C@](C)(c3ccccc3)C2)cn2nc(C(=O)NC3CCNC3)nc12 (stereo partly shown) [Compound 101]	***** (>2.5° C.=*****)
Cc1cc(N2CC[C@](C)(c3ccccc3)C2)cn2nc(C(=O)N[C@@H]3CC[C@@H]3O)nc12 [Compound 161]	***** (>2.5° C.=*****)
Cc1nc(C2C3(N)COC2(c2nc4c(C)cc(N5CC[C@](C)(c6ccccc6)C5)cn4n2)C3)n[nH]1 (stereo partly shown) [Compound 48]	***** (>2.5° C.=*****)
Cc1cc(N2CC[C@](C)(c3ccccc3)C2)cn2nc(C(=O)N3CCC(OCC(=O)O)CC3)nc12 [Compound 182]	***** (>2.5° C.=*****)
Cc1nc(C2C3(CN)COC2(c2nc4c(C)cc(N5CC[C@](C)(c6ccccc6)C5)cn4n2)C3)n[nH]1 (stereo partly shown) [Compound 46]	***** (>2.5° C.=*****)
Cc1nnc(CNC23COC(c4nc5c(C)cc(N6CC[C@](C)(c7ccccc7)C6)cn5n4)(C2)C3)[nH]1 [Compound 56]	***** (>2.5° C.=*****)
COC(=O)C12CCC(NC(=O)c3nc4c(C)cc(N5CC[C@](C)(c6ccccc6)C5)cn4n3)(C1)C2 [Compound 175]	***** (>2.5° C.=*****)
CNC(=O)c1cc2c(N)cc(N3CC[C@](C)(c4ccccc4)C3)cn2n1 [Compound 292]	*** (>1-1.5° C.=***)
Cc1cc(N2CC[C@](C)(c3ccccc3)C2)cn2nc(C(=O)NC3CC(O)(C(F)(F)F)C3)nc12 (stereo partly shown) [Compound 205]	***** (>2.5° C.=*****)
Cc1cc(N2CCOC(C)(c3ccccc3)C2)cn2nc(C(=O)N3CC4CN(c5cccc(C(=O)O)n5)CC4C3)nc12 (stereo not shown) [Compound 432]	* (0-0.5° C.=*)
CCC1(c2ccccc2)CN(c2cc(CO)c3nc(C(=O)NC4CCN(c5cccc(C(=O)O)n5)CC4)nn3c2)C1 [Compound 392]	***** (>2.5° C.=*****)
CNC(=O)c1nc2c(C)cc(N3CCC(C)(c4ncco4)C3)cn2n1 (stereo not shown) [Compound 14, N,8-dimethyl-6-(3-methyl-3-(oxazol-2-yl)pyrrolidin-1-yl)-[1,2,4]triazolo[1,5-a]pyridine-2-carboxamide]	** (>0.5-1 °C =**)
COC(=O)CC1CCN(C(=O)c2nc3c(C)cc(N4CC[C@](C)(c5ccccc5)C4)cn3n2)C1 (stereo partly shown) [Compound 143]	***** (>2.5° C.=*****)
Cc1cc(N2CC[C@](C)(c3ccccc3)C2)cn2nc(C34CC(CO3)C4c3noc(=O)[nH]3)nc12 (stereo partly drawn) [Compound 13, 3-[1-[8-methyl-6-[(3R)-3-methyl-3-phenyl-pyrrolidin-1-yl]-[1,2,4]triazolo[1,5-a]pyridin-2-yl]-2-oxabicyclo[2.1.1]hexan-5-yl]-4H-1,2,4-oxadiazol-5-one]	***** (>2.5° C.=*****)
Cc1cc(N2CC[C@](C)(c3ccccc3)C2)cn2nc(C(=O)N(C)[C@@H]3CCNC3)nc12 [Compound 114]	***** (>2.5° C.=*****)
CCC(=O)N1CCC(NC(=O)c2nc3c(C)cc(N4CC[C@](C)(c5ccccc5)C4)cn3n2)CC1 [Compound 188]	***** (>2.5° C.=*****)

Same assay, conditions: Table B; temperature shift [Tm]compound-[Tm]vehicle; recombinant WIL-FL T46L

SMILES	DSF
Cc1cc(N2CC[C@](C)(c3ccccc3)C2)cn2nc(C34CC(CO)(CO3)C4c3nnnn3C)nc12 (stereo partly shown) [Compound 571]	***** (>2.5° C.=*****)
COc1ccc(OCC2C3COC2(c2nc4c(C)cc(N5CC[C@](C)(c6ccccc6)C5)cn4n2)C3)cn1 (stereo partly shown) [Compound 499]	***** (>2.5° C.=*****)
Cc1cc(N2CC3(CCC3c3cccc(Cl)c3)C2)cn2nc(C(=O)N3CC[C@@]4(CCN(c5cccc(C(=O)O)n5)C4)C3)nc12 (stereo partly shown) [Compound 740]	**** (>1.5-2.5° C.=****)
Cc1nc(C2C3COC2(c2nc4c(C)cc(N5CC[C@](C)(c6ccccc6)C5)cn4n2)C3)cs1 (stereo partly shown) [Compound 485]	***** (>2.5° C.=*****)
Cc1cc(N2CC[C@](C)(c3ccccc3)C2)cn2nc(C(=O)N3CCC(Nc4cccc(C(=O)O)n4)C3)nc12 (stereo partly shown) [Compound 616]	***** (>2.5° C.=*****)
Cc1n[nH]c(C2C3(CO)COC2(c2nc4c(C)cc(N5CC6(CCC6c6ccccc6)C5)cn4n2)C3)n1 (stereo not shown) [Compound 578, [1-[8-methyl-6-(7-phenyl-2-azaspiro[3.3]heptan-2-yl)-[1,2,4]triazolo[1,5-a]pyridin-2-yl]-5-(3-methyl-1H1,2,4-triazol-5-yl)-2-oxabicyclo[2.1.1]hexan-4-yl]methanol]	***** (>2.5° C.=*****)
Cc1ccc(N2CCC3(CCN(C(=O)c4nc5c(C)cc(N6CC[C@](C)(c7ccccc7)C6)cn5n4)C3)C2)nc1C(=O)O (stereo partly shown) [Compound 627]	***** (>2.5° C.=*****)
Cc1cc(N2CC[C@](C)(c3ccccc3)C2)cn2nc(C(=O)NC3CC4(C3)CN(C(=O)C35CCC(C(=O)O)(CC3)OC5)C4)nc12 [Compound 678, 4-[6-[[8-methyl-6-[(3R)-3-methyl-3-phenyl-pyrrolidin-1-yl]-[1,2,4]triazolo[1,5-a]pyridine-2-carbonyl]amino]-2-azaspiro[3.3]heptane-2-carbonyl]-2-oxabicyclo[2.2.2]octane-1-carboxylic acid]	***** (>2.5° C.=*****)
Cc1cc(N2CC[C@](C)(c3ccccc3)C2)cn2nc(C(=O)NC3CN(c4cccc(C(=O)O)n4)CC3O)nc12 (stereo partly shown) [Compound 684]	***** (>2.5° C.=*****)
Cc1cc(N2CC[C@](C)(c3ccccc3)C2)cn2nc(C(=O)NC3CC4(C3)CN(C(=O)CC(C)(C)C(=O)O)C4)nc12 [Compound 601]	***** (>2.5° C.=*****)
CNC(=O)c1nc2c(Cc3nc(CC(=O)O)n[nH]3)cc(N3CC[C@](C)(c4ccccc4)C3)cn2n1 [Compound 759, 2-[5-[[2-(methylcarbamoyl)-6-[(3R)-3-methyl-3-phenyl-pyrrolidin-1-yl]-[1,2,4]triazolo[1,5-a]pyridin-8-yl]methyl]-1H-1,2,4-triazol-3-yl]acetic acid]	**** (>1.5-2.5° C.=****)
Cc1cc(N2CC[C@](C)(c3ccccc3)C2)cn2nc(C(=O)NC3CC4(CCN(C(=O)CC(C)(O)C(=O)O)C4)C3)nc12 (stereo partly drawn) [Compound 673, 2-hydroxy-2-methyl-4-(2-(8-methyl-6-((R)-3-methyl-3-phenylpyrrolidin-1-yl)-[1,2,4]triazolo[1,5-a]pyridine-2-carboxamido)-6-azaspiro[3.4]octan-6-yl)-4-oxobutanoic acid]	***** (>2.5° C.=*****)
Cc1cc(N2CC3(CC[C@@]3(C)c3ccccc3)C2)cn2nc(C(=O)N3CC[C@@]4(CCN(c5cccc(C(=O)O)n5)C4)C3)nc12 [Compound 743, 6-[(5R)-2-[8-methyl-6-[(7S)-7-methyl-7-phenyl-2-azaspiro[3.3]heptan-2-yl]-[1,2,4]triazolo[1,5-a]pyridine-2-carbonyl]-2,7-diazaspiro[4.4]nonan-7-yl]pyridine-2-carboxylic acid]	***** (>2.5° C.=*****)
Cc1cnn(CC23COC(c4nc5c(C)cc(N6CC[C@](C)(c7ccccc7)C6)cn5n4)(C2)C3)n1 [Compound 450]	***** (>2.5° C.=*****)
COc1ccc(N2CCC3(CCN(C(=O)c4nc5c(C)cc(N6CC[C@](C)(c7ccccc7)C6)cn5n4)C3)C2)nc1C(=O)O (stereo partly shown) [Compound 625]	***** (>2.5° C.=*****)
Cc1cc(N2CC[C@](C)(c3ccccc3)C2)cn2nc(C(=O)NC3CCC34CC(O)C4)nc12 (stereo partly drawn) [Compound 676, N-(2-hydroxyspiro[3.3]heptan-7-yl)-8-methyl-6-[(3R)-3-methyl-3-phenyl-pyrrolidin-1-yl]-[1,2,4]triazolo[1,5-a]pyridine-2-carboxamide]	***** (>2.5° C.=*****)
COC(C)(CC(=O)NCC12COC(c3nc4c(C)cc(N5CC[C@](C)(c6ccccc6)C5)cn4n3)(C1)C2c1nc(C)n[nH]1)C(=O)O (stereo partly shown) [Compound 589]	***** (>2.5° C.=*****)
Cc1nc([C@H]2[C@]3(CO)CO[C@@]2(c2nc4c(C)cc(N5CC[C@](C)(c6ccccc6)C5)cn4n2)C3)n[nH]1 [Compound 581, ((1S,4R,5R)-5-(5-methyl-1H-1,2,4-triazol-3-yl)-1-(8-methyl-6-((R)-3-methyl-3-phenylpyrrolidin-1-yl)-[1,2,4]triazolo[1,5-a]pyridin-2-yl)-2-oxabicyclo[2.1.1]hexan-4-yl)methanol]	***** (>2.5° C.=*****)
Cc1cc(N2CC[C@](C)(c3ccccc3)C2)cn2nc(C34CC(CO3)C4CN3CC4C(C3)C4C(=O)O)nc12 (stereo partly drawn) [Compound 506, 3-((1-(8-methyl-6-((R)-3-methyl-3-phenylpyrrolidin-1-yl)-[1,2,4]triazolo[1,5-a]pyridin-2-yl)-2-oxabicyclo[2.1.1]hexan-5-yl)methyl)-3-azabicyclo[3.1.0]hexane-6-carboxylic acid]	***** (>2.5° C.=*****)

— patent US20260285857A1, “BICYCLIC AND HETEROCYCLIC AMIDE COMPOUNDS” (priority 2024, published 2026)
